Legend:
Details in all cases: human; call rule not given here
[1] = test system: Hepatotoxicity; assay: FDA HLAED, liver enzyme composite activity
[2] = test system: Hepatotoxicity; assay: FDA HLAED, alkaline phosphatase increase
[3] = test system: Hepatotoxicity; assay: FDA HLAED, serum glutamic pyruvic transaminase (SGPT) increase
[4] = test system: Hepatotoxicity; assay: FDA HLAED, lactate dehydrogenase (LDH) increase
[5] = test system: Hepatotoxicity; assay: FDA HLAED, gamma-glutamyl transferase (GGT) increase
[6] = test system: Hepatotoxicity; assay: FDA HLAED, serum glutamic oxaloacetic transaminase (SGOT) increase
Throughout, for GGT Increase - Index Value: reference of the scale not given here.
Throughout, for LDH Increase - Index Value: reference of the scale not given here.

Row | SMILES | Composite Activity - Active [1] | Composite Activity - Marginal [1] | Composite Activity - Score [1] | Alkaline Phosphatase Increase - Activity Score [2] | Alkaline Phosphatase Increase - Number of Reports [2] | SGPT Increase - Activity Score [3] | SGPT Increase - Number of Reports [3] | LDH Increase - Activity Score [4] | LDH Increase - Number of Reports [4] | GGT Increase - Activity Score [5] | GGT Increase - Number of Reports [5] | Alkaline Phosphatase Increase - Index Value [2] | SGOT Increase - Activity Score [6] | SGOT Increase - Index Value [6] | SGOT Increase - Number of Reports [6] | SGPT Increase - Index Value [3] | GGT Increase - Index Value [5] | LDH Increase - Index Value [4] | other results
1 | COc1ccc(CCN(C)CCCC(C#N)(c2ccc(OC)c(OC)c2)C(C)C)cc1OC (stereo unspecified) | 0 | 0 | Inactive | Inactive | >= 4 | Inactive | < 4 | Inactive | < 4 | Inactive | < 4 | – | – | – | – | – | – | – | –
2 | Oc1ncnc2[nH]ncc12 [ALLOPURINOL] | 4 | 0 | Active | Active | >= 4 | Active | >= 4 | – | – | Active | >= 4 | 4.7 | Active | 15 | >= 4 | 9.4 | 9.4 | – | –
3 | Cn1cnc([N+](=O)[O-])c1Sc1ncnc2nc[nH]c12 [AZATHIOPRINE] | – | – | – | Active | >= 4 | Active | >= 4 | – | – | Marginally Active | >= 4 | 4.5 | Active | 5 | >= 4 | 5.6 | 3.3 | – | Composite Activity - Active ([1]; Liver): 3; Composite Activity - Marginal ([1]; Liver): 1; Composite Activity - Score ([1]; Liver): Active
4 | NC(=O)N1c2ccccc2C=Cc2ccccc21 [CARBAMAZEPINE] | 1 | 1 | – | Marginally Active | >= 4 | – | – | – | – | Active | >= 4 | 3.3 | – | – | – | – | 4.4 | – | –
5 | O=NN(CCCl)C(=O)NCCCl [CARMUSTINE] | 1 | 0 | – | – | – | – | – | Active | >= 4 | – | – | – | – | – | – | – | – | 14.6 | –
6 | Clc1cccc(Cl)c1N=C1NCCN1 [CLONIDINE] | – | – | – | Active | >= 4 | Active | >= 4 | – | – | Active | >= 4 | 11.5 | – | – | – | 7.6 | 9.5 | – | Composite Activity - Active ([1]; Liver): 2; Composite Activity - Marginal ([1]; Liver): 0; Composite Activity - Score ([1]; Liver): Active
7 | O=P1(N(CCCl)CCCl)NCCCO1 (stereo unspecified) [CYCLOPHOSPHAMIDE ANHYDROUS] | – | – | – | Active | >= 4 | Active | >= 4 | Active | >= 4 | – | – | 4.6 | Active | 8.5 | >= 4 | 8.5 | – | 8.5 | Composite Activity - Active ([1]; Liver): 4; Composite Activity - Marginal ([1]; Liver): 0; Composite Activity - Score ([1]; Liver): Active
8 | CN(C)CCC=C1c2ccccc2COc2ccccc21 [DOXEPIN] | 2 | 0 | Active | Active | < 4 | – | – | – | – | Active | < 4 | 434.8 | – | – | – | – | 434.8 | – | –
9 | CCN(CC)CCOc1ccc(/C(=C(/Cl)c2ccccc2)c2ccccc2)cc1 [ENCLOMIPHENE] | 3 | 0 | Active | – | – | Active | >= 4 | – | – | Active | >= 4 | – | Active | 18.8 | >= 4 | 25 | 15.6 | – | –
10 | O=c1[nH]cc(F)c(=O)[nH]1 [FLUOROURACIL] | 1 | 1 | – | Active | >= 4 | – | – | Marginally Active | >= 4 | – | – | 5.5 | – | – | – | – | – | 3.6 | –
11 | COC1=CC(=O)C[C@@H](C)[C@]12Oc1c(Cl)c(OC)cc(OC)c1C2=O [GRISEOFULVIN] | 4 | 0 | Active | Active | >= 4 | Active | >= 4 | – | – | Active | < 4 | 5.5 | Active | 5.5 | >= 4 | 6.9 | 5.5 | – | –
12 | CN(Cc1cnc2nc(N)nc(N)c2n1)c1ccc(C(=O)N[C@@H](CCC(=O)O)C(=O)O)cc1 [METHOTREXATE] | 2 | 1 | Active | – | – | Active | >= 4 | Marginally Active | >= 4 | – | – | – | Active | 5.3 | >= 4 | 6.4 | – | 3.5 | –
13 | NC1=NC(=O)C(c2ccccc2)O1 (stereo unspecified) [PEMOLINE] | 4 | 0 | Active | Active | >= 4 | Active | >= 4 | Active | >= 4 | – | – | 14 | Active | 22.7 | >= 4 | 23.5 | – | 6.2 | –
14 | NNCCc1ccccc1 [PHENELZINE] | – | – | – | – | – | Active | >= 4 | – | – | Active | >= 4 | – | Active | 4.9 | >= 4 | 4.9 | 4.9 | – | Composite Activity - Active ([1]; Liver): 3; Composite Activity - Marginal ([1]; Liver): 0; Composite Activity - Score ([1]; Liver): Active
15 | NC(=O)c1ncn([C@@H]2O[C@H](CO)[C@@H](O)[C@H]2O)n1 [RIBAVIRIN] | 0 | 0 | Inactive | Inactive | < 4 | Inactive | < 4 | – | – | Inactive | < 4 | – | Inactive | – | < 4 | – | – | – | –
16 | CO[C@H]1/C=C/O[C@@]2(C)Oc3c(C)c(O)c4c(O)c(c(/C=N/N5CCN(C)CC5)c(O)c4c3C2=O)NC(=O)/C(C)=C\C=C\[C@H](C)[C@H](O)[C@@H](C)[C@@H](O)[C@@H](C)[C@H](OC(C)=O)[C@@H]1C [RIFAMPIN] | 1 | 3 | Marginally Active | Marginally Active | >= 4 | Marginally Active | >= 4 | Marginally Active | >= 4 | – | – | No Shipping Units | Active | No Shipping Units | >= 4 | No Shipping Units | – | No Shipping Units | –
17 | CC(C)c1nc(CN(C)C(=O)N[C@H](C(=O)N[C@@H](Cc2ccccc2)C[C@H](O)[C@H](Cc2ccccc2)NC(=O)OCc2cncs2)C(C)C)cs1 [RITONAVIR] | – | – | – | – | >= 4 | – | >= 4 | – | >= 4 | – | >= 4 | – | – | – | >= 4 | – | – | – | –
18 | CC(=O)CC(c1ccccc1)c1c(O)c2ccccc2oc1=O (stereo unspecified) [WARFARIN] | 0 | 3 | – | Marginally Active | >= 4 | Marginally Active | >= 4 | – | – | – | – | No Shipping Units | Marginally Active | No Shipping Units | >= 4 | No Shipping Units | – | – | –

— ChEMBL document CHEMBL1697781, “Assessment of the health effects of chemicals in humans: II. Construction of an adverse effects database for QSAR modeling” (Curr Drug Discov Technol, 2004)
